According to US9708316B2 (BRISTOL-MYERS SQUIBB COMPANY, priority 2014, dated 2017):
Like-named read-outs stand apart in the source and are kept apart here.

Legend:
HIS-TGFβR1 T204D = target: T1, HIS-TGFβR1 T204D (Homo sapiens, UniProt P36897, T204D); experiment: HTRF probe-displacement assay, HIS-TGFβR1 T204D; type: binding
T1 sequence (P36897 34-503 T204D): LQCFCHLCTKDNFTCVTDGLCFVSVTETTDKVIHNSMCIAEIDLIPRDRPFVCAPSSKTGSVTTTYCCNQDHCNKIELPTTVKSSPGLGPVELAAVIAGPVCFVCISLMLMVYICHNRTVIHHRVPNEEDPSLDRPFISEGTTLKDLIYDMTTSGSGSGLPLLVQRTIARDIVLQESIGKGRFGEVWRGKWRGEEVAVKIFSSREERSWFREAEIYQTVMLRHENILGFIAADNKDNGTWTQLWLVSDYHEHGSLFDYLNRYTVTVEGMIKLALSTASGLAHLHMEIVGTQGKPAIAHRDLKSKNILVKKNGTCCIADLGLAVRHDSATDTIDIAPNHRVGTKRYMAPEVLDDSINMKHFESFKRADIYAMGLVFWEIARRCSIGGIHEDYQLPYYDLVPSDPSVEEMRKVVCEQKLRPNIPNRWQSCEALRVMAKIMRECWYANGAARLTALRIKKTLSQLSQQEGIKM

HIS-TGFβR2 WT = HIS-TGFβR2 WT (Homo sapiens, UniProt P37173); experiment: HTRF probe-displacement assay, HIS-TGFβR2 WT; type: binding
HIS-TGFβR2 WT, sequence (P37173 23-567): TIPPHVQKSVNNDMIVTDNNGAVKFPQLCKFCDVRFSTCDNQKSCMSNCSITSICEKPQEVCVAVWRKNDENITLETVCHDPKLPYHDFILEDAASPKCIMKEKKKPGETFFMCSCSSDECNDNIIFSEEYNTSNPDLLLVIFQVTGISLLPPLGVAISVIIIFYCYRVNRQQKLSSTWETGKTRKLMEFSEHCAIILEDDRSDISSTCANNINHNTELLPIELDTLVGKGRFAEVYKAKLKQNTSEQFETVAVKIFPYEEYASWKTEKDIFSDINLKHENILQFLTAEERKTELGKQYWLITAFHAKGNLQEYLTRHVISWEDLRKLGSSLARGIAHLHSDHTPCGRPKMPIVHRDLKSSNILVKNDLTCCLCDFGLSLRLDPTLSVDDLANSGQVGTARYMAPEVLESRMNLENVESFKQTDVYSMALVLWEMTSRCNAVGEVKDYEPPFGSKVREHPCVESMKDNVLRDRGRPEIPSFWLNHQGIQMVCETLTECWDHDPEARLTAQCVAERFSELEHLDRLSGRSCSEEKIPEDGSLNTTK

SMILES | IC50 (HIS-TGFβR1 T204D; read-out: TGFβR1 (μM) IC50) [µM] | IC50 (HIS-TGFβR2 WT) [µM] | IC50 (HIS-TGFβR1 T204D) [µM]
CC(=O)Nc1cc(-c2[nH]c3cccnc3c2-c2cc(C)cc(Cl)n2)ccn1 [Example 30, N-{4-[3-(6-Chloro-4-methylpyridin-2-yl)-1H-pyrrolo[3,2-b]pyridin-2-yl]pyridin-2-yl}acetamide] | 0.32 | 0.49 | 
COc1ccc(-c2c(-c3ccnc(NC(C)=O)c3)[nH]c3cc(C)cnc23)nc1 [Example 184, N-(4-(3-(5-Methoxypyridin-2-yl)-6-methyl-1H-pyrrolo[3,2-b]pyridin-2-yl)pyridin-2-yl)acetamide] | 6.52 | > 15 | 
COc1ccc(-c2c(-c3ccnc(NC(C)=O)c3)[nH]c3c(C(=O)NC(CO)CO)cc(Cl)nc23)cn1 [Example 58, 5-Chloro-N-(1,3-dihydroxypropan-2-yl)-2-(2-acetamidopyridin-4-yl)-3-(6-methoxypyridin-3-yl)-1H-pyrrolo[3,2-b]pyridine-7-carboxamide] | 0.017 | 9.23 | 
COc1ccc(-c2c(-c3ccnc(NC(C)=O)c3)[nH]c3cc(S(C)(=O)=O)cnc23)nc1 [Example 91, N-{4-[6-Methanesulfonyl-3-(5-methoxypyridin-2-yl)-1H-pyrrolo[3,2-b]pyridin-2-yl]pyridin-2-yl}acetamide] | 0.019 | > 15 | 
C=Cc1ccnc2c(-c3cccc(C(F)F)n3)c(-c3ccnc(NC(C)=O)c3)[nH]c12 [Example 127, N-(4-{3-[6-(Difluoromethyl)pyridin-2-yl]-7-ethenyl-1H-pyrrolo[3,2-b]pyridin-2-yl}pyridin-2-yl)acetamide] | 0.001 | 6.65 | 
CC(=O)Nc1cc(-c2[nH]c3c(CO)ccnc3c2-c2ccc(F)nc2)ccn1 [Example 277, N-(4-(3-(6-Fluoropyridin-3-yl)-7-(hydroxymethyl)-1H-pyrrolo[3,2-b]pyridin-2-yl)pyridin-2-yl)acetamide] | 0.006 | 0.01 | 
CC(=O)Nc1cc(-c2[nH]c3c(CO)ccnc3c2-c2ccc(C)nc2)ccn1 [Example 280, N-(4-(7-(Hydroxymethyl)-3-(6-methylpyridin-3-yl)-1H-pyrrolo[3,2-b]pyridin-2-yl)pyridin-2-yl)acetamide] | 0.023 | 4.12 | 
CC(=O)Nc1cc(-c2[nH]c3cc(Cl)cnc3c2-c2ncccc2C)ccn1 [Example 259, N-(4-(6-Chloro-3-(3-methylpyridin-2-yl)-1H-pyrrolo[3,2-b]pyridin-2-yl)pyridin-2-yl)acetamide] | 0.535 | > 15 | 
COc1cnc2c(-c3cccc(C)n3)c(-c3ccnc(NC(C)=O)c3)[nH]c2c1 [Example 283, N-(4-(6-Methoxy-3-(6-methylpyridin-2-yl)-1H-pyrrolo[3,2-b]pyridin-2-yl)pyridin-2-yl)acetamide] | 0.001 | 1.12 | 
C[C@H](O)C(=O)Nc1cc(-c2[nH]c3cc(Cl)cnc3c2-c2ccc(F)cn2)ccn1 [Example 73] | 0.019 | 15.5 | 
CNC(=O)c1ccnc2c(-c3ccc(OC)nc3)c(-c3ccnc(NC(C)=O)c3)[nH]c12 [Example 57, 2-(2-Acetamidopyridin-4-yl)-3-(6-methoxypyridin-3-yl)-N-methyl-1H-pyrrolo[3,2-b]pyridine-7-carboxamide] | 0.019 | 0.11 | 
COc1ccc(-c2c(-c3ccnc(NC(C)=O)c3)[nH]c3c(C(F)F)ccnc23)cn1 [Example 213, N-(4-(7-(Difluoromethyl)-3-(6-methoxypyridin-3-yl)-1H-pyrrolo[3,2-b]pyridin-2-yl)pyridin-2-yl)acetamide] | 0.0061 | 0.118 | 
COC(=O)Nc1cc(-c2[nH]c3cc(Cl)cnc3c2-c2ccc(OC)cn2)ccn1 [Example 87, Methyl N-{4-[6-chloro-3-(5-methoxypyridin-2-yl)-1H-pyrrolo[3,2-b]pyridin-2-yl]pyridin-2-yl}carbamate] | 0.002 | > 15 | 
COc1cnc2c(-c3nc(C)ccc3F)c(-c3ccnc(NC(C)=O)c3)[nH]c2c1 [Example 111, N-(4-(3-(3-Fluoro-6-methylpyridin-2-yl)-6-methoxy-1H-pyrrolo[3,2-b]pyridin-2-yl)pyridin-2-yl)acetamide] | 0.002 | 2.42 | 
CC(=O)Nc1cc(-c2[nH]c3cc(Cl)cnc3c2-c2cccc(C)n2)ccn1 [Example 66, N-{4-[6-Chloro-3-(6-methylpyridin-2-yl)-1H-pyrrolo[3,2-b]pyridin-2-yl]pyridin-2-yl}acetamide] |  | 3.72 | 0.002
CC(=O)Nc1cc(-c2[nH]c3cccnc3c2-c2ccc(C#N)s2)ccn1 [Example 188, N-(4-(3-(5-Cyanothiophen-2-yl)-1H-pyrrolo[3,2-b]pyridin-2-yl)pyridin-2-yl)acetamide] | 0.0104 | 0.24 | 
COc1cc(-c2c(-c3ccnc(NC(C)=O)c3)[nH]c3cccnc23)ccn1 [Example 196, N-(4-(3-(2-Methoxypyridin-4-yl)-1H-pyrrolo[3,2-b]pyridin-2-yl)pyridin-2-yl)acetamide] | 0.0951 | 1.21 | 
COc1cnc2c(-c3cccc(C(F)F)n3)c(-c3ccnc(NC(=O)CN(C)C)c3)[nH]c2c1 [Example 117, N-(4-{3-[6-(Difluoromethyl)pyridin-2-yl]-6-methoxy-1H-pyrrolo[3,2-b]pyridin-2-yl}pyridin-2-yl)-2-(dimethylamino)acetamide] | 0.003 | 11.3 | 
CNCc1cnc2c(-c3ccc(OC)cn3)c(-c3ccnc(NC(C)=O)c3)[nH]c2c1 [Example 293, N-(4-(3-(5-Methoxypyridin-2-yl)-6-((methylamino)methyl)-1H-pyrrolo[3,2-b]pyridin-2-yl)pyridin-2-yl)acetamide] | 0.016 | > 15 | 
CC(=O)Nc1cc(-c2[nH]c3cc(Cl)cnc3c2-c2cccc(C(F)F)n2)ccn1 [Example 171, N-(4-(6-Chloro-3-(6-(difluoromethyl)pyridin-2-yl)-1H-pyrrolo[3,2-b]pyridin-2-yl)pyridin-2-yl)acetamide] | 0.001 | 10.8 | 
CC(=O)Nc1cc(-c2[nH]c3cccnc3c2-c2ccn[nH]2)ccn1 [Example 191, N-(4-(3-(1H-Pyrazol-5-yl)-1H-pyrrolo[3,2-b]pyridin-2-yl)pyridin-2-yl)acetamide] | 0.0939 | 2 | 
CC(=O)Nc1cc(-c2[nH]c3cccnc3c2-c2ccc3ncccc3c2)ccn1 [Example 22, N-{4-[3-(Quinolin-6-yl)-1H-pyrrolo[3,2-b]pyridin-2-yl]pyridin-2-yl}acetamide] | 0.039 | > 15 | 
COc1cnc(-c2c(-c3ccnc(NC(C)=O)c3)[nH]c3cccnc23)cn1 [Example 194, N-(4-(3-(5-Methoxypyrazin-2-yl)-1H-pyrrolo[3,2-b]pyridin-2-yl)pyridin-2-yl)acetamide] | 0.005 | 4.31 | 
COc1ccc(-c2c(-c3ccnc(NC(C)=O)c3)[nH]c3cc(N4CCCC4)cnc23)nc1 [Example 167, N-(4-(3-(5-Methoxypyridin-2-yl)-6-(pyrrolidin-1-yl)-1H-pyrrolo[3,2-b]pyridin-2-yl)pyridin-2-yl)acetamide] | 0.0171 | > 15 | 
COc1ccnc(-c2c(-c3ccnc(NC(C)=O)c3)[nH]c3cccnc23)c1 [Example 28, N-{4-[3-(4-Methoxypyridin-2-yl)-1H-pyrrolo[3,2-b]pyridin-2-yl]pyridin-2-yl}acetamide] | 0.2 | 6.05 | 
